In PMC7545998, “A snake toxin as a theranostic agent for the type 2 vasopressin receptor” (Theranostics, 2020):

Experiments:
[1] = test system: Sprague-Dawley rats; experiment: Pharmacodynamics: diuresis and urine osmolality after single i.p. injection; type: in vivo, rat; set-up: k value of diuresis over time, first phase / k value of diuresis over time, second phase: unit not given here; settings: for maximal diuresis: between first and second h post-injection; for half-life of diuresis decrease: mono-exponential
Procedure: Diuresis was maximal between the first and second h post-injection (pi), with volumes of 29.5, 45.6, 70.9, 67.6 and 79.1 mL/kg/h for the doses of 3, 10, 30, 100 and 356 nmol/kg, respectively (Figure 3C). […] For the highest dose of 356 nmol/kg, the diuresis decreased quickly during the first 4 h and then lasted for four days.
Sprague-Dawley rats are aged between 6 and 12 weeks, between 237 g and 545 g and were use up to 3 times. […] Urine was collected at various times, and centrifuged for 30 min at 20,800 g. Urine osmolality was determined with an osmometer (Knauer, Berlin, Germany). For the pharmacokinetic experiments, a catheter was implanted in the rat jugular vein five days before the experiment. Blood samples of 400 μl were taken at various times under heparin conditions. Blood was centrifuged at 2000 g for 5 min at 4 °C and plasma was frozen at -20 °C.
Sample preparation is described in Table S1. […] The mobile phase consisted of 0.1% formic acid in water (A) and 0.1% formic acid in acetonitrile (B) running in a gradient mode from B 2% to B 100% in 3 min. […] The mass spectrometer was operated in positive ESI and MRM mode. […] A model was selected based on the extravascular (i.p.) route of administration. For the i.p. route, concentration at time zero was assumed to be zero. For each rat, the first concentration below the LLOQ was set at LLOQ/2 for calculation of PK parameters. The area under the plasma concentration versus time curve (AUC) was calculated using the linear trapezoidal method (linear interpolation). When appropriate, the terminal elimination phase of the PK profile was estimated based on the best fit (r^2) using at least the last six observed concentrations. […] The same approach was used to model diuresis over time and two k values were obtained as 0.37774 and 0.02326. Lastly, the PK/PD correlation was achieved after calculating concentrations and diuresis volumes over time based on the equation y = A0*e^-kt where A0 was the computed concentration or diuresis volume at the origin of each phase.

[2] = test system: 156 other GPCRs (including V1aR, V1bR and OTR); settings: at µM concentrations; cited from earlier work
From the text: Named mambaquaretin (MQ1), this peptide was isolated from mamba snake venom.

[3] = test system: rat model of hyponatremia; experiment: Rat model of dDAVP-induced hyponatremia; type: in vivo
Procedure: Hyponatremia was induced in rats by continuous infusion of 10 ng/h of dDAVP and water gavage (Figure 2A). At day 0 (D0), the basal plasma sodium concentration was 145 ± 6 mM. […] In controls, plasma sodium decreased to 134 ± 1 mM and 125 ± 3 mM at D3 and D4, respectively. […] The concentration of 10 µg/kg increased plasma sodium by 12 mmol/l/24 h. This is considered as the highest acceptable correction rate in humans in order to avoid risk of osmotic demyelination. Rat weights were monitored during the experiment, each rat being its own reference.
Specific pathogen-free adult male Sprague-Dawley rats (body weight between 445 and 525 grams) were from Janvier laboratories (Le Genest St. Isle, 53941, Saint Berthevin Cedex, France) and acclimatized to the animal house conditions for 1 week. […] A stock […] solution of desmopressin (dDAVP) was prepared by dissolving 5 mg of drug in physiological saline. dDAVP was administered using subcutaneous ALZET osmotic mini-pumps (model 2002, DURECT Corporation, Cupertino, CA95014, USA) previously filled with a solution of dDAVP (pumping rate of 0.47±0.02 µL/h and mean fill volume of 233.6±4.7 µL). The dose of dDAVP (10 ng/h) was determined in preliminary experiments. Buprenorphine (Centravet, 03120 Lapalisse, France) was administered once a day at a dose of 0.02 mg/kg, s.c. from day 0 to day 3 in order to suppress post-operative pain. Water gavage (30 mL/kg) was performed 2 times per day (at 9 am and 4 pm) in the first 3 days following ALZET pump implantation, and at 9 am at day 4. Body weight was recorded every day in order to adjust for the volume of water to be administered. Rats had free access to standard rat chow, as well as water in their cages. […] On days 0, 2, 3 and 4, at 9 am, 400 µL of blood was collected from isoflurane- anesthetized rats from the tail vein with lithium heparinate (Sanofi-Aventis, Gentilly, France). Samples were centrifuged (4 °C, 2000 g, 5 min). Sodium was quantified by the Central Laboratory of the ENVT, Toulouse, France, on a VITROS 250/350/950/ 5, 1 FS, 4600 and integrated system VITROS 5600 (Ortho-Clinical Diagnostics, Buckinghamshire, United Kingdom). Multiple factor ANOVA followed by Tukey's test were used to test for significance. A P value < 0.05 was considered significant.

[4] = 356 nmol/kg i.p., bi-exponential analysis
[5] = single i.p. 1 nmol/kg, 0-24 h, n=6
[6] = single i.p. 3 nmol/kg, 0-24 h, n=6
[7] = single i.p. 3 nmol/kg, 24 - 48 h, n=6
[8] = single i.p. 10 nmol/kg, 0-24 h, n=11
[9] = single i.p. 10 nmol/kg, 24 - 48 h, n=11
[10] = single i.p. 30 nmol/kg, 0-24 h, n=11
[11] = single i.p. 30 nmol/kg, 24 - 48 h, n=11
[12] = single i.p. 100 nmol/kg, 0-24 h, n=12
[13] = single i.p. 100 nmol/kg, 24 - 48 h, n=12
[14] = single i.p. 356 nmol/kg, 0-24 h, n=17
[15] = single i.p. 356 nmol/kg, 24 - 48 h, n=17
[16] = single i.p. 356 nmol/kg, 72 h (24-h period), n=12
[17] = single i.p. 356 nmol/kg, 96 h (24-h period), n=12

mambaquaretin [MQ1]
maximal diuresis ([1]; 3 nmol/kg i.p.): 0.492 mL/min/kg
half-life of diuresis decrease ([1]; 3 nmol/kg i.p.): 3.7 h
maximal diuresis ([1]; 10 nmol/kg i.p.): 0.76 mL/min/kg
half-life of diuresis decrease ([1]; 10 nmol/kg i.p.): 2.4 h
maximal diuresis ([1]; 30 nmol/kg i.p.): 1.18 mL/min/kg
half-life of diuresis decrease ([1]; 30 nmol/kg i.p.): 2.4 h
maximal diuresis ([1]; 100 nmol/kg i.p.): 1.13 mL/min/kg
half-life of diuresis decrease ([1]; 100 nmol/kg i.p.): 1.2 h
maximal diuresis ([1]; 356 nmol/kg i.p.): 1.32 mL/min/kg
fast half-life (T1/2α) of diuresis [1, 4]: 1.2 h
slow half-life (T1/2β) of diuresis [1, 4]: 27.3 h
k value of diuresis over time, first phase ([1]; 356 nmol/kg i.p., modelled): 0.3777
k value of diuresis over time, second phase ([1]; 356 nmol/kg i.p., modelled): 0.02326
diuresis and osmolality compared to control ([1]; single 1 nmol/kg i.p.): statistically unchanged
Diuresis Average [1, 5]: 0.039 mL/min/kg
Excretion Average [1, 5]: 2206 µosm/h/kg
Osmolarity Averag [1, 5]: 1158 mOsmol/kgH2O
Diuresis Average [1, 6]: 0.0855 mL/min/kg
Excretion Average [1, 6]: 2710 µosm/h/kg
Osmolarity Averag [1, 6]: 503 mOsmol/kgH2O
Diuresis Average [1, 7]: 0.0255 mL/min/kg
Excretion Average [1, 7]: 3077 µosm/h/kg
Osmolarity Averag [1, 7]: 2000 mOsmol/kgH2O
Diuresis Average [1, 8]: 0.13 mL/min/kg
Excretion Average [1, 8]: 2092 µosm/h/kg
Osmolarity Averag [1, 8]: 273 mOsmol/kgH2O
Diuresis Average [1, 9]: 0.0263 mL/min/kg
Excretion Average [1, 9]: 2117 µosm/h/kg
Osmolarity Averag [1, 9]: 1332 mOsmol/kgH2O
Diuresis Average [1, 10]: 0.1742 mL/min/kg
Excretion Average [1, 10]: 2280 µosm/h/kg
Osmolarity Averag [1, 10]: 214 mOsmol/kgH2O
Diuresis Average [1, 11]: 0.0375 mL/min/kg
Excretion Average [1, 11]: 2064 µosm/h/kg
Osmolarity Averag [1, 11]: 937 mOsmol/kgH2O
Diuresis Average [1, 12]: 0.2138 mL/min/kg
Excretion Average [1, 12]: 2046 µosm/h/kg
Osmolarity Averag [1, 12]: 162 mOsmol/kgH2O
Diuresis Average [1, 13]: 0.0457 mL/min/kg
Excretion Average [1, 13]: 1930 µosm/h/kg
Osmolarity Averag [1, 13]: 703 mOsmol/kgH2O
Diuresis Average [1, 14]: 0.3492 mL/min/kg
Excretion Average [1, 14]: 2658 µosm/h/kg
Osmolarity Averag [1, 14]: 136 mOsmol/kgH2O
Diuresis Average [1, 15]: 0.161 mL/min/kg
Excretion Average [1, 15]: 2617 µosm/h/kg
Osmolarity Averag [1, 15]: 283 mOsmol/kgH2O
Diuresis Average [1, 16]: 0.1 mL/min/kg
Excretion Average [1, 16]: 2617 µosm/h/kg
Osmolarity Averag [1, 16]: 455 mOsmol/kgH2O
Diuresis Average [1, 17]: 0.0627 mL/min/kg
Excretion Average [1, 17]: 2838 µosm/h/kg
Osmolarity Averag [1, 17]: 754 mOsmol/kgH2O
affinity for 156 other GPCRs (including V1aR, V1bR and OTR) [2]: no affinity
plasma sodium ([3]; 10 µg/kg ([…]) s.c. on days 2-4, D3): 145 ± 3 mM
plasma sodium ([3]; 10 µg/kg ([…]) s.c. on days 2-4, D4): 148 ± 2 mM
plasma sodium ([3]; 100 µg/kg (16 nmol/kg) s.c. on days 2-4, D3): 146 ± 2 mM
plasma sodium ([3]; 100 µg/kg (16 nmol/kg) s.c. on days 2-4, D4): 154 ± 2 mM
